Measurements from patent US8603986B2, “Compounds and methods for modulating cadherin-mediated processes” (McGill University, priority 2005, dated 2013).
pKd: −log10 of the molar value. Marks after values point to notes of the source that are not given here. One block for each substance: values may come before it.

Assays:
[1] = system: SKOV3 human ovarian cancer cells; assay: Disruption of SKOV3 cell adhesion in confluent cultures; format: cell-based; design: key to Peptide Disrupts Adhesion of SKOV3 cells: +: yes; −: no; details: for Peptide Disrupts Adhesion of SKOV3 cells: Table 8 summary
Procedure: SKOV3 human ovarian cancer cells (kind gift from Dr. Riaz Farookhi, McGill University, Montreal, Quebec) were cultured in MEM containing 1.25 μg/ml Fungizone, 100 U/ml penicillin 100 μg/ml streptomycin, 0.1 mM nonessential amino acids, 2 mM L-glutamine, 10 μg/ml ml gentamicin and 10% fetal bovine serum. All culture reagents were purchased from GIBCO (Burlington, ON). To obtain confluent cell cultures, 100,000 cells per well were plated onto a 4 well slide (NalgeNunc, Naperville, Ill.) and incubated for 24 h at 37° C., in a humidified atmosphere (5% CO2).
(§1) Depending on their solubility, peptides were dissolved directly in culture medium and added to confluent cell cultures at the indicated concentration, or they were dissolved in dimethylformamide (DMF) to obtain a 100× concentrated solution or in water to obtain a 10× concentrated solution. The peptide stock solutions were further diluted with culture medium to a final working concentration and added to confluent cell cultures. Culture medium containing 1% solvent was used as a control. At the end of the treatment, cells were either examined by phase contrast microscopy, or fixed with 4% paraformaldehyde in PBS and stained with hematoxylin prior to light microscopic examination.
Confluent cultures of SKOV3 cells were incubated in the presence of individual peptides.

[2] = system: MCF-7 human breast cancer cells; assay: Disruption of MCF-7 cell adhesion; format: cell-based; design: key to Peptide Disrupts Adhesion of MCF-7 cells: +: yes; −: no; details: for Peptide Disrupts Adhesion of MCF-7 cells: Table 8 summary
Procedure: MCF-7 human breast cancer cells (kind gift from Dr. Riaz Farookhi, McGill University, Montreal, Quebec) were cultured in the same medium as SKOV3 but supplemented with 1 mM sodium pyruvate.
as §1

[3] = target: T1, N-cadherin/Fc chimeric protein (Homo sapiens, UniProt P19022); assay: Table 8 summary: peptide binds to N-cad/Fc; format: binding; design: key: +: yes; −: no
T1 construct: extracellular domain of human N-cadherin (Asp160-Ala724); purchased R&D Systems, Minneapolis, Minn
T1 sequence (P19022 160-724): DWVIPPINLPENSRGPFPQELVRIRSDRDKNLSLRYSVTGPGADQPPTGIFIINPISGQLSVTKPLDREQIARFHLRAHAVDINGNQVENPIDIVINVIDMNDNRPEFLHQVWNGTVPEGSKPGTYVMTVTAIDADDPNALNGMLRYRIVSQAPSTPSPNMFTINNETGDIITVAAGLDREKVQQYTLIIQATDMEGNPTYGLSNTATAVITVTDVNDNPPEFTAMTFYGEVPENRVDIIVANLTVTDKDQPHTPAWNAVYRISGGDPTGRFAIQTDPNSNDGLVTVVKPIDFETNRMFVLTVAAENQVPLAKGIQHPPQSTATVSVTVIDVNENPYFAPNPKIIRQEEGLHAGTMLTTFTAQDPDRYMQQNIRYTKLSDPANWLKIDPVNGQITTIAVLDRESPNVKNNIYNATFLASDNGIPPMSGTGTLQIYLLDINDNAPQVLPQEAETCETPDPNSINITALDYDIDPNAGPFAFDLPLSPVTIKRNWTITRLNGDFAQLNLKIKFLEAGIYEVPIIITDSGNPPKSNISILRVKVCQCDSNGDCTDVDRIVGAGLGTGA

[4] = target: T2, E-cadherin/Fc chimeric protein (Homo sapiens, UniProt P12830); assay: Table 8 summary: peptide binds to E-cad/Fc; format: binding; design: key: +: yes; −: no
T2 construct: extracellular domain of human E-cadherin (Asp155-Ile707); purchased R&D Systems, Minneapolis, Minn
T2 sequence (P12830 155-707): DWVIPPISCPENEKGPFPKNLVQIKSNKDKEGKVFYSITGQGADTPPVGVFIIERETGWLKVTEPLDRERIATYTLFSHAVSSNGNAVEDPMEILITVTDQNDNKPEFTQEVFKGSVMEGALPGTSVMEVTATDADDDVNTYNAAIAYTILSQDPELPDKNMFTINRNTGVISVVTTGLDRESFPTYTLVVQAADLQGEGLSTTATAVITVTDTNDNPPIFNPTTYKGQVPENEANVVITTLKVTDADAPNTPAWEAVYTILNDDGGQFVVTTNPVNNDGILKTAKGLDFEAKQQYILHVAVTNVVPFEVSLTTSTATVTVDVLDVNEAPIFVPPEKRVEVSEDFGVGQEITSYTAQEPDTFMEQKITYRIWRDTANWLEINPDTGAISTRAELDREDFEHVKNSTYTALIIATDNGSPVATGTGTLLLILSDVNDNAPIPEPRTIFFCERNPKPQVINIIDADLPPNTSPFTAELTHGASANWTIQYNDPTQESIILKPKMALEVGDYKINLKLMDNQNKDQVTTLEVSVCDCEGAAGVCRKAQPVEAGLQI

[5] = system: Human Umbilical Vein Endothelial Cells (HUVEC); assay: Disruption of HUVEC adhesion; format: cell-based; design: key to Peptide Disrupts Adhesion of HUVEC: +: yes; −: no; details: for Peptide Disrupts Adhesion of HUVEC: Table 8 summary
Procedure: (§2) Human Umbilical Vein Endothelial Cells (HUVEC) and Human Dermal Microvascular Endothelial Cells (HMVEC-d) were purchased from Cambrex Bio Science Walkersville, Inc. Clonetics EGM-2 and EGM-2-MV Bulletkits (Cambrex Bio Science Walkersville, Inc) were used to culture HUVEC and HMVEC-d respectively. Cells (40,000 per well) were plated onto a 4 well slide (NalgeNunc, Naperville, Ill.) and incubated at 37° C., in a humidified atmosphere (5% CO2).
as §1

[6] = system: Human Dermal Microvascular Endothelial Cells (HMVEC-d); assay: Disruption of HMVEC adhesion; format: cell-based; design: key to Peptide Disrupts Adhesion of HMVEC: +: yes; −: no; details: for Peptide Disrupts Adhesion of HMVEC: Table 8 summary
Procedure: as §2, §1

[7] = target: T1, N-cadherin/Fc chimeric protein; assay: Surface plasma resonance (Biacore) analysis on N-cadherin/Fc; format: binding
Procedure: (§3) The binding of representative peptide modulating agents to either N- or VE-cadherin/Fc chimeric proteins was assessed using a BIAcore X™ Biosensor (Pharmacia Ltd., Sweden). Goat anti-human IgG recognizing N- and VE-cadherin/Fc chimeric proteins (R&D Systems, Minneapolis, Minn.) was immobilized on a CM5 sensor chip (Biacore S51) using standard amine-coupling method at 25° C. HBS-P buffer (10 mM HEPES, 0.15 M NaCl, 0.005% p20, pH 7.4) was used as the running buffer. The carboxymethyl dextran surface was activated with a 7 min injection of a 1:1 ratio of 0.4 M EDC and 0.1 M NHS. The goat anti-human IgG (Caltag Lab.) was coupled to the surface with a 7 min injection diluted in 10 mM sodium acetate, pH 5.0 to a final concentration 80 ug/ml. Remaining activated groups were blocked with a 7 min injection of 1 M ethanolamine, pH 8.5. N- and VE-cadherin/Fc chimeric proteins were dissolved in buffer containing 50 mM Tris HCl, 150 mM NaCl, and 1.2 mM CaCl2 pH 7.5 to a concentration of 0.2 μM and captured on spots 1 and 2 at a flow rate of 30 μl/min for 30 min with resulting density 927 RU for N-cadherin/Fc chimeric protein and 1008 RU for VE-cadherin/Fc chimeric protein.
The linear peptide H-SWTLYTPSGQSK-NH2 (SEQ ID NO: 16) and the control linear peptide H-SRTLYTPSGQSK-NH2 (SEQ ID NO: 58) were passed over surfaces coated with captured N- and VE-cadherin/Fc chimeric proteins in running buffer containing 50 mM Tris-HCl, 150 mM NaCl, and 1.2 mM CaCl2, pH 7.5 at concentrations ranging from 100-1.56 uM. The experiment was performed at a flow rate 90 ul/min at 25° C. […] All responses were referenced for reference surface and blank injections of running buffer.

[8] = target: T3, VE-cadherin/Fc chimeric protein (Homo sapiens, UniProt P33151); assay: Surface plasma resonance (Biacore) analysis on VE-cadherin/Fc; format: binding; details: 100-1.56 uM
T3 construct: purchased R&D Systems, Minneapolis, Minn
Procedure: as §3, with “protein. […]” for “protein.”

[9] = confluent cultures, concentration not given
[10] = 1 mg/ml medium, up to 1 h incubation

T3 sequence (P33151 with tags, fused parts or gaps limits assumed, species assumed): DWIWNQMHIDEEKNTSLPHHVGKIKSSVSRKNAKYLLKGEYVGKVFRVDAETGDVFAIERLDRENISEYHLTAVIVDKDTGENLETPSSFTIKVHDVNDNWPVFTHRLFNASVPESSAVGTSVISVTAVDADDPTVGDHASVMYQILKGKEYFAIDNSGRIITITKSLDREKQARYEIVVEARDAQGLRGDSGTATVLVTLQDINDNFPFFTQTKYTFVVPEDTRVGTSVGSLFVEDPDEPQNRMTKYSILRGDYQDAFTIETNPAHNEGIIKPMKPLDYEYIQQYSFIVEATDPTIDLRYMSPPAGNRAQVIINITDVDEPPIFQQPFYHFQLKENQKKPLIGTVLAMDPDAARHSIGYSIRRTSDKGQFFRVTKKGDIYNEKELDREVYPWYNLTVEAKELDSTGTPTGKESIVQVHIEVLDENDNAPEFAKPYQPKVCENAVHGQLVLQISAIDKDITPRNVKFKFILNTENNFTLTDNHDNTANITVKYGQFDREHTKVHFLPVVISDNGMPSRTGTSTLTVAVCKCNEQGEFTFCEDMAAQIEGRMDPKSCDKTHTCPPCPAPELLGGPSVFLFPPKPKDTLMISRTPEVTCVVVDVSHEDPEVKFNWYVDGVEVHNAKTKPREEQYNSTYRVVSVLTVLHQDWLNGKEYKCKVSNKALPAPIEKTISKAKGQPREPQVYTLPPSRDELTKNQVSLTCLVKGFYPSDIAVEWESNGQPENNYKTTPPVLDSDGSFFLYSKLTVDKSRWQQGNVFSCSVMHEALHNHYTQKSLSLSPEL

Substance: H-SWELYYPLRANL-NH2
effect on SKOV3 cell adhesion ([1]; 1 mg/ml): disrupted
Peptide Disrupts Adhesion of SKOV3 cells [1]: +
effect on MCF-7 cell adhesion ([2]; 1 mg/ml): disrupted
Peptide Disrupts Adhesion of MCF-7 cells [2]: +
Peptide Binds to N-cad/Fc [3]: +
Peptide Binds to E-cad/Fc [4]: +

Peptide Binds to N-cad/Fc [3]: +
Peptide Binds to E-cad/Fc [4]: −
Substance: H-WELRVSSP-NH2
effect on cell adhesion and cell morphology ([1]; 0.5 mg/ml, SKOV3 per b307 and Table 8): capable of disrupting cell adhesion and altering cell morphology
Peptide Disrupts Adhesion of SKOV3 cells [1]: +

Peptide Binds to N-cad/Fc [3]: +
Peptide Binds to E-cad/Fc [4]: +
Substance: H-EWMIHYDSALTS-NH2
effect on SKOV3 cell adhesion ([1]; 1 mg/ml): disrupted
Peptide Disrupts Adhesion of SKOV3 cells [1]: +
effect on MCF-7 cell adhesion ([2]; 1 mg/ml): disrupted
Peptide Disrupts Adhesion of MCF-7 cells [2]: +

Substance: H-SWTLYTPSGQSK-NH2 [H-SWTLYTPSGQSK-NH2]
Peptide Disrupts Adhesion of SKOV3 cells [1]: +
effect on SKOV3 cell adhesion [1, 9]: disrupted SKOV3 cell adhesion
Peptide Disrupts Adhesion of MCF-7 cells [2]: −
effect on MCF-7 cell adhesion ([2]; concentration not given): did not affect MCF-7 cell adhesion
effect on HUVEC adhesion ([5]; 0.062 mg/ml, 1 h incubation): moderate activity
incubation time after which HUVEC adhesion was disrupted ([5]; 1 mg/ml medium): 5 min
incubation time of maximum effect on HUVEC adhesion ([5]; 1 mg/ml medium): 1 h
effect on HUVEC adhesion [5, 10]: disrupted HUVEC adhesion
Peptide Disrupts Adhesion of HUVEC [5]: +
peptide concentrations disrupting HUVEC adhesion ([5]; after 1 h incubation, dose-dependent): ≥ 0.125 mg/mL
effect on HMVEC adhesion ([6]; 0.062 mg/ml): disrupted
effect on HMVEC adhesion ([6]; 0.125 mg/ml): more pronounced effects
effect on HMVEC adhesion ([6]; 0.5 mg/ml and higher): still stronger effects
Peptide Disrupts Adhesion of HMVEC [6]: +
pKd ([7]; 25° C., 1.2 mM CaCl2): 4.18
kd ([7]; 25° C., 1.2 mM CaCl2): 0.407(8) s^−1
kon ([7]; pH 7.5, 25° C., 1.2 mM CaCl2, read-out: ka): 6100 M⁻¹ s⁻¹
binding to VE-cadherin/Fc chimeric protein [8]: did not bind
Peptide Binds to N-cad/Fc [3]: +
Peptide Binds to E-cad/Fc [4]: −

Peptide Binds to N-cad/Fc [3]: +#
Peptide Binds to E-cad/Fc [4]: −##
Substance: H-WYVCVGAH-NH2
effect on SKOV3 cell adhesion and morphology ([1]; 100 and 150 μg/ml (tested 50, 100 and 150 μg/ml medium), 24 h): capable of disrupting cell adhesion and altering cell morphology
Peptide Disrupts Adhesion of SKOV3 cells [1]: +
culture time after which the effect on SKOV3 cell adhesion was evident ([1]; more pronounced after 24 h): 9 h
effect on MCF-7 cell adhesion ([2]; 100 μg/ml): did not affect MCF-7 cell adhesion
Peptide Disrupts Adhesion of MCF-7 cells [2]: −

Substance: H-SWTLYTPSGQSK-(succinyl-PEG5000-OMe)—NH2 (H-SWTLYTPSGQSK-NH2; also: succinyl-PEG5000-OMe attached, site not given here)
activity on HUVEC adhesion ([5]; 4.7 mg/ml): strong activity
incubation time within which HUVEC adhesion was disrupted ([5]; 4.7 mg/ml): within one hour

Peptide Binds to N-cad/Fc [3]: +
Peptide Binds to E-cad/Fc [4]: −
Substance: H-HWYITTGPVREK-NH2
effect on HUVEC adhesion [5, 10]: had no effect on HUVEC adhesion
Peptide Disrupts Adhesion of HUVEC [5]: −

binding to N-cadherin/Fc chimeric protein ([7]; 100-1.56 uM): did not bind
binding to VE-cadherin/Fc chimeric protein [8]: did not bind
Peptide Binds to N-cad/Fc [3]: −
Substance: H-SRTLYTPSGQSK-NH2 [reference compound]
Peptide Disrupts Adhesion of SKOV3 cells [1]: −
effect on SKOV3 cell adhesion [1, 9]: had no effect
effect on HUVEC adhesion [5, 10]: had no biological activity
Peptide Disrupts Adhesion of HUVEC [5]: −
Peptide Disrupts Adhesion of HMVEC [6]: −
effect on HMVEC adhesion ([6]; highest concentration of 1 mg/ml): had no biological activity
